Assay [1] addresses His-GST-TVMV-hRIPK1 (1-324) (Homo sapiens (Human), UniProt Q13546). In words: RIPK1 HTRF Binding Assay. As to conditions: read-out: RIPK1 HTRF (IC50); FRET probe displacement, 1 h at rt. In general terms: In TR-FRET formats the signal depends on donor and acceptor labels being close together.
Experimental: A solution was prepared containing 0.2 nM Anti GST-Tb (Cisbio, 61GSTTLB), 90.6 nM probe and 1 nM His-GST-TVMV-hRIPK1 (1-324) in FRET Buffer (20 mM HEPES, 10 mM MgCl2, 0.015% Brij-35, 4 mM DTT, 0.05 mg/mL BSA). Using Formulatrix Tempest, the detection antibody/enzyme/probe solution (2 mL) was dispensed into wells of a 1536 plate (Black Low Binding Polystyrene 1536 Plate (Corning, 3724)) containing 10 nL of compounds of interest at appropriate concentration in DMSO. The plate was incubated at rt for 1 h. FRET was measured using the EnVision plate reader (Excitation: 340 nm, Emission: 520 nm/495 nM). Total signal (0% inhibition) was calculated from wells containing 10 nL DMSO only.
The test system of assay [2] is MLKL phosphorylation in HT29-L23 human colorectal adenocarcinoma cells. In words: MLKL Phosphorylation High-Content Assay. As to conditions: 6 h, necroptosis induced with TNFα, SMAC mimetic and Z-VAD, read-out: pMLKL (IC50). The class given is cell-based. Summed up: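 HT29-L23 cells were induced to necroptosis with TNFα (35 ng/mL), SMAC mimetic (700 nM) and Z-VAD (140 nM) for 6 h at 37 °C. Phospho-MLKL (S358) immunofluorescence was imaged and quantified per cell; maximal inhibition set by Nec-1s (6.25 μM), and IC50/Ymax from 4-parameter logistic fit.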

The values below come from US12172975B2, “1H-indazole carboxamides as receptor-interacting protein kinase 1 inhibitors (RIPK1)” (BRISTOL-MYERS SQUIBB COMPANY, priority 2018, dated 2024).

SMILES strings stand for the structures. pIC50: −log10 of the molar value. Structures can show the parent of a compound that is named as a salt. Where two headings read alike, the source gives them in different places.

His-GST-TVMV-hRIPK1 (1-324), sequence (Q13546 1-324): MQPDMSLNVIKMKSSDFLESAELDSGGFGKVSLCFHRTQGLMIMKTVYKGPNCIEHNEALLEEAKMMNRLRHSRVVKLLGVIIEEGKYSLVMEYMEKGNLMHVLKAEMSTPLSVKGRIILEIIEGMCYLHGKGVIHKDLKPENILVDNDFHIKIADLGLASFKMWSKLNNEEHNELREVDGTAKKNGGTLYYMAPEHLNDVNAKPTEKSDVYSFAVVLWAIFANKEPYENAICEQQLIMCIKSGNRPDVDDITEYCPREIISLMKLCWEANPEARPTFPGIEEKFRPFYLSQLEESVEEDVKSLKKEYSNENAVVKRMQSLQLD

The pIC50 is the negative decadic logarithm of the IC50, by convention in mol/L. As to `[2H]C([2H])([2H])Oc1ncc(-c2ccc3c(C(=O)NC)n[nH]c3c2)cc1C(=O)N[C@H](C)c1cccc(C(F)(F)F)c1` [Example 34, 6-[6-(deutero)methoxy-5-{[(1R)-1-[3-(trifluoromethyl)phenyl]-ethyl]carbamoyl}pyridin-3-yl]-N-methyl-1H-indazole-3-carbox-amide], the figures for the pIC50 in assay [1] and in assay [2] (Homo sapiens) were 7.24 and 7.04, respectively.

Take `[2H]C([2H])([2H])Oc1ncc(-c2ccc3c(C(=O)NC)n[nH]c3c2)cc1C(=O)N[C@@H](C)c1cccc(C(F)(F)F)c1` [Example 35, 6-[6-(deutero)methoxy-5-{[(1S)-1-[3-(trifluoromethyl)phenyl]-ethyl]carbamoyl}pyridin-3-yl]-N-methyl-1H-indazole-3-carboxamide]: the pIC50 in assay [1] was 8.00; in assay [2] (Homo sapiens) it was 7.36.

Regarding `[2H]C([2H])([2H])Oc1ncc(-c2ccc3c(C(=O)NC)n[nH]c3c2)cc1C(=O)NC(C)c1cc(F)ccc1C(F)(F)F` (stereo not shown) [Example 36, 6-[5-({1-[5-fluoro-2-(trifluoro-methyl)phenyl]ethyl}carbamoyl)-6-(deutero)methoxypyridin-3-yl]-N-methyl-1H-indazole-3-carbox-amide], the figures for the negative-log IC50 (pIC50) in assay [1] and in assay [2] (Homo sapiens) were 8.03 and 7.70, respectively.

Turning to `CNC(=O)c1n[nH]c2cc(-c3cnc(OC)c(C(=O)NCCC(C)c4ccccc4)c3)ccc12` (stereo not shown) [Example 37, 6-{6-methoxy-5-[(3-phenylbutyl)-carbamoyl]pyridin-3-yl}-N-methyl-1H-indazole-3-carbox-amide], the pIC50 is 8.77 in assay [1] and 9.52 in assay [2].

Regarding `CNC(=O)c1n[nH]c2cc(-c3cnc(OC)c(C(=O)NCc4ccccc4CN(C)C)c3)ccc12` [Example 54, 6-{5-[({2-[(dimethylamino)-methyl]phenyl}methyl)carbam-oyl]-6-methoxypyridin-3-yl}-N-methyl-1H-indazole-3-carboxamide], the pIC50 in assay [1] is 7.55; in assay [2], 6.92.

Consider `CNC(=O)c1n[nH]c2cc(-c3cnc(OC)c(C(=O)NCCCOc4ccccc4)c3)ccc12` [Example 55, 6-{6-methoxy-5-[(3-phenoxy-propyl)carbamoyl]pyridin-3-yl}-N-methyl-1H-indazole-3-carboxamide], for which the figures for the pIC50 in assay [1] and in assay [2] (Homo sapiens) were 7.92 and 7.57, respectively.

As for `CNC(=O)c1n[nH]c2cc(-c3cnc(OC)c(C(=O)NCC(O)COc4ccccc4)c3)ccc12` (stereo not shown) [Example 56, 6-{5-[(2-hydroxy-3-phenoxy-propyl)carbamoyl]-6-meth-oxypyridin-3-yl}-N-methyl-1H-indazole-3-carboxamide], the pIC50 in assay [1] is 8.08; in assay [2] (Homo sapiens) it was 7.59.

`CNC(=O)c1n[nH]c2cc(-c3cnc(OC)c(C(=O)NCCCOC4CCCCC4)c3)ccc12` [Example 62, 6-(5-{[3-(cyclohexyloxy)-propyl]carbamoyl}-6-methoxy-pyridin-3-yl)-N-methyl-1H-indazole-3-carboxamide]: the pIC50 in assay [1] was 8.17; in assay [2] (Homo sapiens), 7.59.

Take `CNC(=O)c1n[nH]c2cc(-c3cnc(OC)c(C(=O)NCCCOc4ccc(F)cc4)c3)ccc12` [Example 63, 6-(5-{[3-(4-fluorophenoxy)-propyl]carbamoyl}-6-methoxy-pyridin-3-yl)-N-methyl-1H-indazole-3-carboxamide]: the pIC50 was 8.64 in assay [1] and 7.80 in assay [2] (Homo sapiens).

On to `CNC(=O)c1n[nH]c2cc(-c3cnc(OC)c(C(=O)NCCCOCC(C)C)c3)ccc12` [Example 64, 6-(6-methoxy-5-{[3-(2-methyl-propoxy)propyl]carbamoyl}-pyridin-3-yl)-N-methyl-1H-indazole-3-carboxamide], for which the negative-log IC50 (pIC50) in assay [1] was 8.09; in assay [2] (Homo sapiens) it was 8.52.

`CNC(=O)c1n[nH]c2cc(-c3cnc(OC)c(C(=O)NCCC(O)c4ccc(Cl)cn4)c3)ccc12` (stereo not shown) [Example 65, 6-(5-{[3-(5-chloropyridin-2-yl)-3-hydroxypropyl]carbamoyl}-6-methoxypyridin-3-yl)-N-methyl-1H-indazole-3-carbox-amide]: the figures for the pIC50 in assay [1] and in assay [2] were 8.08 and 8.80, respectively.

In the case of `CNC(=O)c1n[nH]c2cc(-c3cnc(OC)c(C(=O)NCC4(COc5ccccc5)CC4)c3)ccc12` [Example 68, 6-[6-methoxy-5-({[1-(phenoxy-methyl)cyclopropyl]methyl}-carbamoyl)-pyridin-3-yl]-N-methyl-1H-indazole-3-carbox-amide], the pIC50 is 8.34 in assay [1] and 7.55 in assay [2].

As to `CNC(=O)c1n[nH]c2cc(-c3cnc(OC)c(C(=O)NCC4(c5ccc(F)cc5)CC4)c3)ccc12` [Example 71, 6-[5-({[1-(4-fluorophenyl)cyclo-propyl]methyl}carbamoyl)-6-methoxypyridin-3-yl]-N-methyl-1H-indazole-3-carboxamide], the results for the pIC50 in assay [1] and in assay [2] (Homo sapiens) were 7.10 and 7.11, respectively.

For `CNC(=O)c1n[nH]c2cc(-c3cnc(OC)c(C(=O)NCC4(c5ccccc5OC(F)(F)F)CC4)c3)ccc12` [Example 72, 6-{6-methoxy-5-[({1-[2-(tri-fluoromethoxy)phenyl]cyclo-propyl}methyl)carbamoyl]-pyridin-3-yl}-N-methyl-1H-indazole-3-carboxamide], the pIC50 is 6.41 in assay [1] and 6.40 in assay [2] (Homo sapiens).

As for `CNC(=O)c1n[nH]c2cc(-c3cnc(OC)c(C(=O)NCc4ccccc4NC(=O)OC(C)(C)C)c3)ccc12` [Example 73, tert-butyl-N-{2-[({2-methoxy-5-[3-(methylcarbamoyl)-1H-indazol-6-yl]pyridin-3-yl}-formamido)methyl]phenyl}-carbamate], the results for the pIC50 in assay [1] and in assay [2] (Homo sapiens) were 8.33 and 6.92, respectively.

As to `CNC(=O)c1n[nH]c2cc(-c3cnc(OC)c(C(=O)NCCC(=O)OC(C)(C)C)c3)ccc12` [Example 74, tert-butyl 3-({2-methoxy-5-[3-(methylcarbamoyl)-1H-indazol-6-yl]pyridin-3-yl}formamido)-propanoate], the pIC50 in assay [1] is 7.55; in assay [2] (Homo sapiens), 7.21.

`CNC(=O)c1n[nH]c2cc(-c3cnc(OC)c(C(=O)NCc4ccccc4OCC(F)(F)F)c3)ccc12` [Example 75, 6-[6-methoxy-5-({[2-(2,2,2-trifluoroethoxy)phenyl]-methyl}carbamoyl)pyridin-3-yl]-N-methyl-1H-indazole-3-carboxamide, TFA]: the pIC50 in assay [1] is 8.74; in assay [2], 8.36.

With `CNC(=O)c1n[nH]c2cc(-c3cnc(OC)c(C(=O)NCc4cc(C(F)(F)F)ccc4OC)c3)ccc12` [Example 76, 6-[6-methoxy-5-({[2-methoxy-5-(trifluoromethyl)phenyl]-methyl}carbamoyl)pyridin-3-yl]-N-methyl-1H-indazole-3-carboxamide], the pIC50 in assay [1] is 7.01; in assay [2] (Homo sapiens), 7.00.

As to `CNC(=O)c1n[nH]c2cc(-c3cnc(OC)c(C(=O)NC[C@@H]4CCCC[C@H]4NC(=O)OC(C)(C)C)c3)ccc12` [Example 77, tert-butyl N-[(1R,2S)-2-[({2-methoxy-5-[3-(methylcarbam-oyl)-1H-indazol-6-yl]pyridin-3-yl}formamido)methyl]-cyclohexyl]carbamate], the pIC50 in assay [1] is 8.42; in assay [2] it was 7.11.

Take `CNC(=O)c1n[nH]c2cc(-c3cnc(OC)c(C(=O)NCC4CCCOC4c4ccccc4)c3)ccc12` (stereo not shown) [Example 79, 6-(6-methoxy-5-{[(2-phenyl-oxan-3-yl)methyl]carbamoyl}-pyridin-3-yl)-N-methyl-1H-indazole-3-carboxamide]: the pIC50 was 8.74 in assay [1] and 7.68 in assay [2] (Homo sapiens).

As to `CNC(=O)c1n[nH]c2cc(-c3cnc(OC)c(C(=O)NCC4CCCOC4C(C)(C)C)c3)ccc12` (stereo not shown) [Example 83, 6-(5-{[(2-tert-butyloxan-3-yl)-methyl]carbamoyl}-6-methoxy-pyridin-3-yl)-N-methyl-1H-indazole-3-carboxamide], the pIC50 in assay [1] is 8.12; in assay [2] (Homo sapiens) it was 7.33.

`CNC(=O)c1n[nH]c2cc(-c3cnc(OC)c(C(=O)NCc4ccccc4C#N)c3)ccc12` [Example 84, 6-(5-{[(2-cyanophenyl)methyl]-carbamoyl}-6-methoxypyridin-3-yl)-N-methyl-1H-indazole-3-carboxamide]: the negative logarithm of the IC50 (pIC50) in assay [1] is 7.35; in assay [2] (Homo sapiens), 6.74.

As to `CNC(=O)c1n[nH]c2cc(-c3cnc(OC)c(C(=O)NCc4ccccc4OCC4CCC4)c3)ccc12` [Example 86, 6-[5-({[2-(cyclobutylmethoxy)-phenyl]methyl}carbamoyl)-6-methoxypyridin-3-yl]-N-methyl-1H-indazole-3-carbox-amide], the pIC50 was 8.62 in assay [1] and 8.39 in assay [2].

As to `CNC(=O)c1n[nH]c2cc(-c3cnc(OC)c(C(=O)NC4CCCC(OCC(F)(F)F)C4)c3)ccc12` (stereo not shown) [Example 87, 6-(6-methoxy-5-{[3-(2,2,2-trifluoroethoxy)cyclohexyl]-carbamoyl}pyridin-3-yl)-N-methyl-1H-indazole-3-carbox-amide], the results for the negative-log IC50 (pIC50) in assay [1] and in assay [2] were 8.41 and 7.89, respectively.

`CCOC(=O)C(C)(C)CNC(=O)c1cc(-c2ccc3c(C(=O)NC)n[nH]c3c2)cnc1OC` [Example 88, ethyl 3-({2-methoxy-5-[3-(methylcarbamoyl)-1H-indazol-6-yl]pyridin-3-yl}-formamido)-2,2-dimethyl-propanoate]: the pIC50 was 7.28 in assay [1] and 6.60 in assay [2] (Homo sapiens).

For the compound `CNC(=O)c1n[nH]c2cc(-c3cnc(OC)c(C(=O)NCC(C)(C)C(=O)OC(C)(C)C)c3)ccc12` [Example 90, tert-butyl 3-({2-methoxy-5-[3-(methylcarbamoyl)-1H-indazol-6-yl]pyridin-3-yl}-formamido)-2,2-dimethyl-propanoate], the negative logarithm of the IC50 (pIC50) was 7.80 in assay [1] and 7.33 in assay [2] (Homo sapiens).
